Holding throughout (experiment): relative viability (nuclei count vs DMSO), 5 days (fraction); higher = more cells survive
Compound in the experiment “Ruxolitinib + AZD7762”: N#CC[C@H](C1CCCC1)n1cc(-c2ncnc3[nH]ccc23)cn1 [Ruxolitinib] + NC(=O)Nc1cc(-c2cccc(F)c2)sc1C(=O)N[C@H]1CCCNC1 [AZD7762] (partner 0.2 µM)
In short, it runs like this: (§1)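 Medians of duplicate plates are given as relative viability. That measure is the nuclei count in treated wells divided by the count in vehicle wells. Counts were taken on 4× images of lung cancer cell lines in 1536-well plates, 5 days after pin-tool dosing the day after seeding with one drug alone or a fixed anchor-drug dose plus five library-drug doses (not always all listed) in √10 steps.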

Compound in the experiment “Vismodegib + Trametinib”: CS(=O)(=O)c1ccc(C(=O)Nc2ccc(Cl)c(-c3ccccn3)c2)c(Cl)c1 [Vismodegib] + CC(=O)Nc1cccc(-n2c(=O)n(C3CC3)c(=O)c3c(Nc4ccc(I)cc4F)n(C)c(=O)c(C)c32)c1 [Trametinib] (partner 0.02 µM)
The essentials:
as §1

Compound in the experiment “VE-821 + Trametinib”: CS(=O)(=O)c1ccc(-c2cnc(N)c(C(=O)Nc3ccccc3)n2)cc1 [VE-821] + CC(=O)Nc1cccc(-n2c(=O)n(C3CC3)c(=O)c3c(Nc4ccc(I)cc4F)n(C)c(=O)c(C)c32)c1 [Trametinib] (partner 0.02 µM)
The essentials: as §1

Compound in the experiment “Ruxolitinib + Olaparib”: N#CC[C@H](C1CCCC1)n1cc(-c2ncnc3[nH]ccc23)cn1 [Ruxolitinib] + O=C(c1cc(Cc2n[nH]c(=O)c3ccccc23)ccc1F)N1CCN(C(=O)C2CC2)CC1 [Olaparib] (partner 8 µM)
In short, it runs like this: as §1

Take NCI-H1792: the relative viability with Ruxolitinib + AZD7762 (first compound 0.08 µM) turned out to be 0.557; in the experiment with Ruxolitinib + AZD7762 (first compound 0.253 µM) it was 0.636; in the experiment with Ruxolitinib + AZD7762 (first compound 0.8 µM), 0.63; with Ruxolitinib + AZD7762 (first compound 2.53 µM), 0.475; in the experiment with Ruxolitinib + AZD7762 (first compound 8 µM), 0.391; with Vismodegib + Trametinib (first compound 0.08 µM), 0.392. Besides, the relative viability amounted to 0.447 with Vismodegib + Trametinib (first compound 0.253 µM); 0.361 in the experiment with Vismodegib + Trametinib (first compound 0.8 µM); 0.376 with Vismodegib + Trametinib (first compound 2.53 µM); 0.398 with Vismodegib + Trametinib (first compound 8 µM); 0.505 with VE-821 + Trametinib (first compound 0.08 µM); 0.464 with VE-821 + Trametinib (first compound 0.253 µM). The relative viability in the experiment with VE-821 + Trametinib (first compound 0.8 µM) amounted to 0.361; in the experiment with VE-821 + Trametinib (first compound 2.53 µM) it was 0.65; in the experiment with VE-821 + Trametinib (first compound 8 µM) it was 0.492; with Ruxolitinib + Olaparib (first compound 0.08 µM), 0.303; in the experiment with Ruxolitinib + Olaparib (first compound 0.253 µM), 0.44; with Ruxolitinib + Olaparib (first compound 0.8 µM), 0.377. For the same cell line, the relative viability with Ruxolitinib + Olaparib (first compound 2.53 µM) amounted to 0.384; with Ruxolitinib + Olaparib (first compound 8 µM), 0.236.

As for NCI-H1793, the relative viability with Ruxolitinib + AZD7762 (first compound 0.08 µM) was determined as 0.759; with Ruxolitinib + AZD7762 (first compound 0.253 µM) it was 0.502; with Ruxolitinib + AZD7762 (first compound 0.8 µM) it was 0.595; with Ruxolitinib + AZD7762 (first compound 2.53 µM), 0.437; with Ruxolitinib + AZD7762 (first compound 8 µM), 0.391; in the experiment with Vismodegib + Trametinib (first compound 0.253 µM) it was 0.366. For the same cell line, the relative viability is 0.479 with Vismodegib + Trametinib (first compound 0.8 µM); 0.409 with Vismodegib + Trametinib (first compound 2.53 µM); 0.413 with Vismodegib + Trametinib (first compound 8 µM); 0.605 with VE-821 + Trametinib (first compound 0.08 µM); 0.408 with VE-821 + Trametinib (first compound 0.253 µM); 0.526 with VE-821 + Trametinib (first compound 2.53 µM). The relative viability stood at 0.618 with VE-821 + Trametinib (first compound 8 µM); 0.769 with Ruxolitinib + Olaparib (first compound 0.08 µM); 0.8 with Ruxolitinib + Olaparib (first compound 0.253 µM); 1.07 with Ruxolitinib + Olaparib (first compound 0.8 µM); 0.89 with Ruxolitinib + Olaparib (first compound 2.53 µM); 0.706 in the experiment with Ruxolitinib + Olaparib (first compound 8 µM).

For NCI-H1915, the relative viability in the experiment with Ruxolitinib + AZD7762 (first compound 0.08 µM) came to 0.687; with Ruxolitinib + AZD7762 (first compound 0.253 µM), 0.681; with Ruxolitinib + AZD7762 (first compound 0.8 µM) it was 0.753; with Ruxolitinib + AZD7762 (first compound 2.53 µM) it was 0.572; with Ruxolitinib + AZD7762 (first compound 8 µM), 0.593; with Vismodegib + Trametinib (first compound 0.08 µM) it was 0.295. Also, the relative viability with Vismodegib + Trametinib (first compound 0.253 µM) came out at 0.282; with Vismodegib + Trametinib (first compound 0.8 µM), 0.303; with Vismodegib + Trametinib (first compound 2.53 µM) it was 0.303; with Vismodegib + Trametinib (first compound 8 µM), 0.335; with VE-821 + Trametinib (first compound 0.08 µM), 0.331; with VE-821 + Trametinib (first compound 0.253 µM) it was 0.288. For the same cell line, the relative viability is 0.281 with VE-821 + Trametinib (first compound 0.8 µM); 0.349 with VE-821 + Trametinib (first compound 2.53 µM); 0.303 in the experiment with VE-821 + Trametinib (first compound 8 µM); 0.249 in the experiment with Ruxolitinib + Olaparib (first compound 0.08 µM); 0.255 in the experiment with Ruxolitinib + Olaparib (first compound 0.253 µM); 0.265 in the experiment with Ruxolitinib + Olaparib (first compound 0.8 µM). For the same cell line, the relative viability with Ruxolitinib + Olaparib (first compound 2.53 µM) was 0.208; with Ruxolitinib + Olaparib (first compound 8 µM) it was 0.236.

For NCI-H1944, the relative viability in the experiment with Ruxolitinib + AZD7762 (first compound 0.08 µM) was determined as 0.576; with Ruxolitinib + AZD7762 (first compound 0.253 µM), 0.612; with Ruxolitinib + AZD7762 (first compound 0.8 µM), 0.642; with Ruxolitinib + AZD7762 (first compound 2.53 µM), 0.469; with Ruxolitinib + AZD7762 (first compound 8 µM), 0.68; with Vismodegib + Trametinib (first compound 0.08 µM), 0.386. Moreover, the relative viability stood at 0.395 with Vismodegib + Trametinib (first compound 0.253 µM); 0.425 in the experiment with Vismodegib + Trametinib (first compound 0.8 µM); 0.399 with Vismodegib + Trametinib (first compound 8 µM); 0.401 in the experiment with VE-821 + Trametinib (first compound 0.08 µM); 0.445 with VE-821 + Trametinib (first compound 0.253 µM); 0.432 with VE-821 + Trametinib (first compound 0.8 µM). For the same cell line, the relative viability with VE-821 + Trametinib (first compound 2.53 µM) was 0.399; with VE-821 + Trametinib (first compound 8 µM), 0.364; with Ruxolitinib + Olaparib (first compound 0.08 µM), 0.431; with Ruxolitinib + Olaparib (first compound 0.253 µM) it was 0.426; in the experiment with Ruxolitinib + Olaparib (first compound 0.8 µM), 0.428; with Ruxolitinib + Olaparib (first compound 2.53 µM), 0.399. For the same cell line, the relative viability with Ruxolitinib + Olaparib (first compound 8 µM) stood at 0.448.

Values taken from the supplement of paper PMC10307832.
